{
  "source": "patent US11375708B2",
  "about": "“Methods and apparatus for management of mosquito populations with habitat sharing heterospecific insects carrying insect growth regulators” (Rutgers, The State University of New Jersey, priority 2015, dated 2022)",
  "test_system": "Aedes albopictus",
  "assay": "Room (30 m^3) release of 20 treated Chironomus against 10 sentinel cups, mosquito pupal mortality",
  "type": "in vivo",
  "settings": "20 treated Chironomus released in 30 m^3 room, 2 days (48 hour exposure), 10 cups each with 250 ml oak infusion",
  "from_the_text": "FIG. 2. Mosquito pupal mortality achieved by releasing oil treated 20 Chironomus adults in a 30 m^3 room for 2 days against 10 sentinel cups. The average pupal mortality of Aedes albopictus was 88±3.5%.\nChironomus females don't need blood feeding and the larvae are easy to culture. […] The larvae developed in cryptic sentinel cups indicated the treated female has visited the cup and laid eggs. In the same cup, pupal mortality of Aedes albpictus indicated the pyriproxyfen transfer (FIG. 5). We further challenged the technology in a meshed tunnel (50×3×2 m) setup in the field with 10 cryptic sentinel cups inside (FIG. 7) by releasing 50 treated C. decorus females for 5 days. […] The backyard experiment was conducted by treating 800 chironomid adults with oil formulation (20% a.i) first and followed with powder formulation (60% a.i) at a separate location to avoid contamination. In this experiment, the active ingredient (a.i.) was pyriproxyfen. In order to avoid any dew effect, release time was in the afternoon between 2 to 5 pm. […]\nAdults (males and females) of C. decorus (0 to 2 days old) will be collected and stored in a cage constructed with metal window screen. […] The cage with contaminated Chironomus then will be removed from the bottom of the chamber and ready for release in cases where only oil treatment is desired. […]",
  "data": [
    {"smiles": "CC(COc1ccc(Oc2ccccc2)cc1)Oc1ccccn1", "note": "(stereo not shown) [pyriproxyfen]", "values": [
      {"measurement": "average pupal mortality of Aedes albopictus", "value": "88.5±3.5", "unit": "%"}
    ]}
  ]
}
